Measured values from US5214054A, “Azacyclic carboxylic acid derivatives and their preparation and use” (Novo Nordisk A/S, priority 1988, dated 1993).
Where a name gives a salt, the structure may show the parent alone.

System: GABA uptake
Test: not given
Settings: background art; cited from earlier work

For O=C(O)C1CCCN(CCC=C(c2ccccc2)c2cccs2)C1 (centres unmarked) [SK&F 100604J, N-(4-phenyl-4-(2-thienyl)-3-buten-1-yl)nipecotic acid], which “inhibition of GABA re-uptake / uptake (in words)” value is on record?
The value was “oral inhibitors of GABA uptake”.

With O=C(O)C1CCCN(CCC=C(c2ccccc2)c2ccccc2)C1 (centres unmarked) [SK&F 89976A, N-(4,4-diphenyl-3-buten-1-yl)nipecotic acid] as the molecule, how does the “inhibition of GABA re-uptake / uptake (in words)” value read?
The value was “oral inhibitors of GABA uptake”.

Which “inhibition of GABA re-uptake / uptake (in words)” value does the source give for O=C(O)C1CCCNC1 (centres unmarked) [piperidine-3-carboxylic acid] here?
The value was “potent inhibitor of GABA re-uptake”.

For O=C(O)CC1CCN(CCC=C(c2ccccc2)c2ccccc2)C1 (stereo not drawn) [SK&F 100561, N-(4,4-diphenyl-3-buten-1-yl)homo-β-proline], which “inhibition of GABA re-uptake / uptake (in words)” value is on record?
The value was “oral inhibitors of GABA uptake”.

With O=C(O)C1=CCCN(CCC=C(c2ccccc2)c2ccccc2)C1 [SK&F 100330A, N-(4,4-diphenyl-3-buten-l-yl)guvacine] as the molecule, how does the “inhibition of GABA re-uptake / uptake (in words)” value read?
The value was “oral inhibitors of GABA uptake”.

System: [^3 H]-GABA uptake
Test: in vitro inhibition of [^3 H]-GABA uptake
Format: biochemical
Settings: Male Wistar rat cortical tissue, 60 min, 30° C., pH 7.5, ligand 0.2 nM
Procedure: The in vitro inhibition of [^3 H]-GABA uptake was assessed essentially by the method of Fjalland (Acta Pharmacol. Toxicol. 42 (1978) 73-76). Male Wistar rat cortical tissue was gently homogenized by hand using a glass teflon homogenizer in 10 volumes of 0.32M sucrose. Incubation was performed in a 40 mM tris HCl buffer (pH 7.5 at 30° C.) containing […], […], 4 mM MgSO4, 2.3 mM CaCl2 and 10 mM glucose, for 60 min. at 30° C. Ligand concentration was 0.2 nM.

Which IC50 does the source give for O=C(O)[C@@H]1CCCN(CCON=C(c2ccccc2)c2ccccc2)C1 [Example 1, (R)-Diphenylmethanone O-[2-(3-carboxypiperidin-1-yl)ethyl]oxime] here?
The IC50 was 82 nM.

With Cc1ccccc1C(=NOCCN1CCCC(C(=O)O)C1)c1sccc1C (centres unmarked) [Example 26, (2-Methylphenyl)-(3-methyl-2-thienyl)methanone O-[2-(3-carboxypiperidin-1-yl)ethyl]oxime hydrochloride] as the molecule, how does the IC50 read?
The IC50 was 58 nM.

Which IC50 does the source give for Cc1ccsc1C(=NOCCN1CCC=C(C(=O)O)C1)c1sccc1C [Example 46, Bis(3-methyl-2-thienyl)methanone O-[2-(3-carboxy-1,2,5,6-tetrahydropyridin-1-yl)ethyl]oxime hydrochloride] here?
The IC50 was 59 nM.

With Cc1ccsc1C(=NOCCN1CCC[C@@H](C(=O)O)C1)c1sccc1C [Example 3, (R)-Bis(3-methyl-2-thienyl)methanone O-[2-(3-carboxypiperidin-1-yl)ethyl]oxime hydrochloride] as the molecule, how does the IC50 read?
Its IC50 is 30 nM.

For Cc1ccsc1C(=NOCCN1CCC[C@H](C(=O)O)C1)c1sccc1C [Example 47, (S)-Bis(3-methyl-2-thienyl)methanone O-[2-(3-carboxypiperidin-1-yl)ethyl]oxime hydrochloride], which IC50 is on record?
The IC50 was 51 nM.

Which IC50 does the source give for O=C(O)C1CCCN(CCON=C(c2ccccc2)c2ccccc2)C1 (centres unmarked) [Example 25, Diphenylmethanone O-[2-(3-carboxypiperidin-1-yl)ethyl]oxime hydrochloride] here?
The IC50 was 138 nM.

With O=C(O)[C@@H]1CCCN(CCON=CC(c2ccccc2)c2ccccc2)C1 [Example 83, E/Z-(R)-2,2-Diphenylacetaldehyde O-[2-(3-carboxy-piperidin-1-yl)ethyl]oxime hydrochloride] as the molecule, how does the IC50 read?
The IC50 was 217 nM.

Which IC50 does the source give for CCc1ccccc1C(=NOCCN1CCC[C@@H](C(=O)O)C1)c1sccc1C [Example 4, (R)-(2-Ethylphenyl)-(3-methyl-2-thienyl)methanone O-[2-(3-carboxypiperidin-1-yl)ethyl]oxime hydrochloride] here?
Its IC50 is 52 nM.

For O=C(O)C1=CCCN(CCON=C(c2ccccc2)c2ccccc2)C1 [Example 45, Diphenylmethanone O-[2-(3-carboxy-1,2,5,6-tetrahydropyridin-1-yl)ethyl]oxime], which IC50 is on record?
Its IC50 is 48 nM.

With Cc1ccccc1C(=NOCCN1CCC[C@@H](C(=O)O)C1)c1sccc1C [Example 2, (R)-(2-Methylphenyl)-(3-methyl-2-thienyl)methanone O-[2-(3-carboxypiperidin-1-yl)ethyl]oxime hydrochloride] as the molecule, how does the IC50 read?
Its IC50 is 44 nM.

For Cc1ccsc1C(=NOCCN1CCC[C@@H](C(=O)O)C1)c1cccs1 [Example 5, (R)-(3-Methyl-2-thienyl)-(2-thienyl)methanone O-[2-(3-carboxypiperidin-1-yl)ethyl]oxime], which IC50 is on record?
Its IC50 is 64 nM.

System: not given
Test: not given
Settings: background art; cited from earlier work

Which “ability to cross the blood-brain barrier (in words)” value does the source give for O=C(O)C1CCCNC1 (centres unmarked) [piperidine-3-carboxylic acid] here?
The value was “unable to cross the blood-brain b arrier”.
